Data from paper PMC4178217, “Quinoline 3-sulfonamides inhibit lactate dehydrogenase A and reverse aerobic glycolysis in cancer cells” (Cancer & Metabolism, 2013).
Where two headings read alike, the source gives them in different places.

Legend:
[1] = target: Serotonin Receptor 5H1; experiment: Serotonin Receptor 5H1 ANT; conditions: antagonist
From the text: (§1) ANT = antagonist (pIC50), AG = agonist (pEC50). pIC50 and pEC50 are the negative logarithms10 of IC50 and EC50, respectively. Click here for file

[2] = target: Serotonin Receptor 5HT1B (Homo sapiens, UniProt P28222); experiment: Serotonin Receptor 5HT1B ANT; conditions: antagonist; read-out: pIC50 Serotonin Receptor 5HT1B ANT (converted)
From the text: as §1

[3] = target: T1, Muscarinic Receptor M1 (Homo sapiens, UniProt P11229); experiment: Muscarinic Receptor M1 ANT; conditions: antagonist; read-out: pIC50 Muscarinic Receptor M1 ANT (converted)
T1 sequence (P11229 1-460): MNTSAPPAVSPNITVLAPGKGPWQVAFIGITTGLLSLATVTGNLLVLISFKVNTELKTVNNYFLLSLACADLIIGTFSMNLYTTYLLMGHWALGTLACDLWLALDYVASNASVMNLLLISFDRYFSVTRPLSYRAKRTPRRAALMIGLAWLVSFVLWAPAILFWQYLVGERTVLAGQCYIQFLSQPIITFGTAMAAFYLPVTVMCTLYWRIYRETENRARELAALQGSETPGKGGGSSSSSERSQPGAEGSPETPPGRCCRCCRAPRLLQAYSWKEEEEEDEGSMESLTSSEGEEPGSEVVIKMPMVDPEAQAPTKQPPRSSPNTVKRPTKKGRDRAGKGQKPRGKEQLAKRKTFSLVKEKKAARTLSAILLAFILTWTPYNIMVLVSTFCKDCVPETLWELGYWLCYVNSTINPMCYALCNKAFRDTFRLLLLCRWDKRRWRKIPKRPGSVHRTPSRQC
From the text: as §1

[4] = target: Nicotinic Ach Receptor A1 (Homo sapiens, UniProt P02708+P07510+Q07001); experiment: Nicotinic Ach Receptor A1 AG
From the text: as §1

[5] = target: Phosphoinositide 3-kinase g (Homo sapiens, UniProt P48736); experiment: Phosphoinositide 3-kinase g ANT; assay type: biochemical; conditions: antagonist; read-out: pIC50 Phosphoinositide 3-kinase g ANT (converted)
From the text: as §1

[6] = tested on: HCC1937 cells; experiment: ECAR after mitochondrial inhibition, breast cancer lines and HCC1937 isogenic shRNA lines; assay type: cell-based, human
Experimental: A2780 were obtained from the European Collection of Cell Cultures (ECACC, Porton Down, UK), IGROV-1 and U251 were from the National Cancer Institute (NCI, Bethesda, MD, USA), and all other cell lines were from American Type Culture Collection (ATCC, Manassas, VA, USA). The cell lines were authenticated as previously described. All cell lines were maintained in a 37°C 5% CO2-95% humidified air incubator. Breast cancer cell lines were cultured in DMEM (Life Technologies, Carlsbad, CA, USA) supplemented with 5% FBS (Sigma-Aldrich, St. Louis, MO, USA). All other cell lines were maintained in R10 medium (Roswell Park Memorial Institute medium (RPMI)-1640 (Life Technologies) supplemented with 10% FBS). MCF10A cells were supplemented with additional cholera toxin (100 ng/mL), hydrocortisone ([…]), insulin (10 μg/mL), and epidermal growth factor (EGF) (20 ng/mL). […]
For XF96 experiments breast cancer cells were seeded in DMEM without bicarbonate at 16,000/well in XF96 V3 PET plates (Seahorse Biosciences) coated with CellTak (BD Biosciences, San Jose, CA, USA). […] The medium was exchanged with DMEM without bicarbonate prior to readings on the XF96 Analyzer (Seahorse Biosciences).

[7] = tested on: HepG2 cells; experiment: 13C NMR spectroscopy of glucose consumption and lactate production, HepG2; assay type: cell-based, human; conditions: HepG2, 10 μM
Experimental: After this pre-incubation, cells were washed in PBS and resuspended in 400 μL of glucose-free RPMI supplemented with 10% deuterium oxide, 11 mM D-(1,6-^13C2)glucose, and LDHA inhibitor or DMSO. An additional 600 μL of the same medium was gently added to top off the resuspended cells. Five mm NMR tubes with reduced sample depth (Shigemi Inc, Allison Park, PA, USA) were used to ensure that the cells remain inside the active volume of the receiver coil of the probe. […] . Prior to Fourier transformation, sensitivity and resolution were enhanced by applying an exponential line-broadening of 1 Hz over the first 32,000 data points and then zero filled to 256,000 data points. Spectra were analyzed using in-house data analysis software.

Chain of Phosphoinositide 3-kinase g (P48736 whole entry): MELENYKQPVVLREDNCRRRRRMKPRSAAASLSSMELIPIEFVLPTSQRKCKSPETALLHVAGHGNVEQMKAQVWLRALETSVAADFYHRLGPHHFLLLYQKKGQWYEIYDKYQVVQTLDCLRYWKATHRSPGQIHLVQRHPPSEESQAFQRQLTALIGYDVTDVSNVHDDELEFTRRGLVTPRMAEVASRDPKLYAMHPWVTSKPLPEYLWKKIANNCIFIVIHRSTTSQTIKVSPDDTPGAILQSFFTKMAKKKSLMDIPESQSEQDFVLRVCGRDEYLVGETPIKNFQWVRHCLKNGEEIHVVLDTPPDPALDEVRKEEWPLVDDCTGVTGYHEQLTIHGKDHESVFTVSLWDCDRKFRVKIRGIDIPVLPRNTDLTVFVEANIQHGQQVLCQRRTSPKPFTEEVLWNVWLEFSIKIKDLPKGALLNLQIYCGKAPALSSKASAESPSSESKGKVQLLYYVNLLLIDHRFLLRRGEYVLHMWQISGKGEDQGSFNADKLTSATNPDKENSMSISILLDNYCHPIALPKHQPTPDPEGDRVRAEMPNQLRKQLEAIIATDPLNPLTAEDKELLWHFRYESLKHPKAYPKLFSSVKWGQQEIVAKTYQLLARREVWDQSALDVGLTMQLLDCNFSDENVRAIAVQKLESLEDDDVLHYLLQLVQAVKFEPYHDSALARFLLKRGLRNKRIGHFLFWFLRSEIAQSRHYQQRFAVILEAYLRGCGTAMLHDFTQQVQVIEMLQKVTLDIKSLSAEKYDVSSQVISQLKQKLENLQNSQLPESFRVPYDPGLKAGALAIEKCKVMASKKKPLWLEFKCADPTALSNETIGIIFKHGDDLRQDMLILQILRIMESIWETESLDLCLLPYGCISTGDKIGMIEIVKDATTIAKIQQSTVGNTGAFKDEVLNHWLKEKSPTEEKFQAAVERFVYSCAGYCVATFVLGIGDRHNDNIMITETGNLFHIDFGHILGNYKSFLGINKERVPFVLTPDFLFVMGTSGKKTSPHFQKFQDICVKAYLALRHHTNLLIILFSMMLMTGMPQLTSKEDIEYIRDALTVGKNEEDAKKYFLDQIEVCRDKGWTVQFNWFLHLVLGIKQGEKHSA
Chain of Serotonin Receptor 5HT1B (P28222 whole entry): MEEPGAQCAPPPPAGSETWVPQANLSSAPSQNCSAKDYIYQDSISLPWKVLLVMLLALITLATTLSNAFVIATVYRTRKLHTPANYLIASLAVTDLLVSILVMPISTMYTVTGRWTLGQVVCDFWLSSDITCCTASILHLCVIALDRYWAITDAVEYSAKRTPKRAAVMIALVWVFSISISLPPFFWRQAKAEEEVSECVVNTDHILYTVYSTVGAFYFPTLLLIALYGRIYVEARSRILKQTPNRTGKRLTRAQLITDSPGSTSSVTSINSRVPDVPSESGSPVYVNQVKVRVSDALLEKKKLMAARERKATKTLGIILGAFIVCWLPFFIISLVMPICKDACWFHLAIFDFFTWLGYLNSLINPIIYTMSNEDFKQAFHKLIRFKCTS
Chain of Nicotinic Ach Receptor A1 (P02708 21-457): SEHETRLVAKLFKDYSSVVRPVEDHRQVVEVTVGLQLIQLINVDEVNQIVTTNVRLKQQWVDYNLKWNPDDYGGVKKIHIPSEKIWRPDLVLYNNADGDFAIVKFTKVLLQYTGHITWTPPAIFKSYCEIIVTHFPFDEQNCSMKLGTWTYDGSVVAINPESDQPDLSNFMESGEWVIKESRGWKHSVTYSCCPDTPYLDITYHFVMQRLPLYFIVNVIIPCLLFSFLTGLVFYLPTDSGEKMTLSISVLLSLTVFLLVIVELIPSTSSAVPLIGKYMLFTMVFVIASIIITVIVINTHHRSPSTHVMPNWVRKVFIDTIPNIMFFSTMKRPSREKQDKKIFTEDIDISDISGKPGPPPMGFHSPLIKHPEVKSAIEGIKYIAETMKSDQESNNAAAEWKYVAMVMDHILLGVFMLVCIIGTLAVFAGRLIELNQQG
Chain of Nicotinic Ach Receptor A1 (P11230 24-501 partner): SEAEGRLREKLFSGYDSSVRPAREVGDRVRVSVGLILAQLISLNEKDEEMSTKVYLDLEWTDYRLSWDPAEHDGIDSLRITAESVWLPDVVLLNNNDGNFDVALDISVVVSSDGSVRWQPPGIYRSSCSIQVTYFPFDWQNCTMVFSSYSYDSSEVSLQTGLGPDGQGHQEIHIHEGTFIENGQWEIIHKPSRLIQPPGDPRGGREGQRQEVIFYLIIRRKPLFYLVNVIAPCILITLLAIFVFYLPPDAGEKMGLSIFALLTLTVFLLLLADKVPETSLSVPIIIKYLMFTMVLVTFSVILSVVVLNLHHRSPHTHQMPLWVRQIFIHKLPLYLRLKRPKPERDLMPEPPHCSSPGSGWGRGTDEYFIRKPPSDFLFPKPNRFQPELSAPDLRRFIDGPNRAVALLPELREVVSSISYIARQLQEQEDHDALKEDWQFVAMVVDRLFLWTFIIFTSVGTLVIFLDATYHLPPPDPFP
Chain of Nicotinic Ach Receptor A1 (Q07001 22-517): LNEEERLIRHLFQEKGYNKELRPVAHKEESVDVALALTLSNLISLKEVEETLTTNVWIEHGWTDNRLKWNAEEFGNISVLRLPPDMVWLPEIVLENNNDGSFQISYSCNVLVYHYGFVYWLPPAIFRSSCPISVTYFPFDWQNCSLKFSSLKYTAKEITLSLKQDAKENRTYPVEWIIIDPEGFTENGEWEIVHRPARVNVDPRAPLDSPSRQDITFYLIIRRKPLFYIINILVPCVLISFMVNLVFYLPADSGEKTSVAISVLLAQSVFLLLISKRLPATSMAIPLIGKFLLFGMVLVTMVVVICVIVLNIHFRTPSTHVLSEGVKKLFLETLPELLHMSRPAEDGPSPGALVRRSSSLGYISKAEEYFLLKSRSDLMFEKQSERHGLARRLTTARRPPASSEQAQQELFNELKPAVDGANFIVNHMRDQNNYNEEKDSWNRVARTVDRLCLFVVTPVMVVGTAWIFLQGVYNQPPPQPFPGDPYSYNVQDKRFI
Chain of Nicotinic Ach Receptor A1 (P07510 23-517): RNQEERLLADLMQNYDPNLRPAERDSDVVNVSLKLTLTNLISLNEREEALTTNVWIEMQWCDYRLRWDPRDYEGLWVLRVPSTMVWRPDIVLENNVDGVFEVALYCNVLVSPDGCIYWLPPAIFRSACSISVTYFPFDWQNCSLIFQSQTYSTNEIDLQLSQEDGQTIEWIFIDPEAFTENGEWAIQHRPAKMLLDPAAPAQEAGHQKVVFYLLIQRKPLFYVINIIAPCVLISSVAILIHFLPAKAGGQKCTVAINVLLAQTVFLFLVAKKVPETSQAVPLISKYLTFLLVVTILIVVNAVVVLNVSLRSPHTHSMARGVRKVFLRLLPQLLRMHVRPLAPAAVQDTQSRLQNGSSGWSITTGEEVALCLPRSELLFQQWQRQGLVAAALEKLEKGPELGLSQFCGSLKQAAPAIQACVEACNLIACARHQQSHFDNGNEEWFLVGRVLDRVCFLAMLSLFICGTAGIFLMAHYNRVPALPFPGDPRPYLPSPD

Compound | pIC50 Serotonin Receptor 5H1 ANT [1] | IC50 [2] [µM] | IC50 [3] [µM] | EC50 ([4]; agonist, read-out: pEC50 Nicotinic Ach Receptor A1 AG (converted)) [µM] | IC50 [5] [µM] | sensitivity (ECAR) with LDHA knockdown ([6]; HCC1937 stable LDHA shRNA) | sensitivity (ECAR) with LDHB knockdown ([6]; HCC1937 stable LDHB shRNA) | EC50 [4] [µM] | (3-13C)lactate production [7]
COc1ncc(-c2ccc3c(Nc4cc(C(=O)O)cc(C5CCCC5)c4)c(S(=O)(=O)NC4CC4)cnc3c2)c(OC)n1 [Compound 2] | 4.4 | 31.6 | 15.8 | 50.1 | 31.6 | – | – | – | –
COc1ncc(-c2ccc3c(Nc4cc(Oc5cc(F)cc(F)c5)cc(C(=O)O)c4)c(S(=O)(=O)NC4CC4)cnc3c2)c(OC)n1 [Compound 1] | 4.7 | 31.6 | 15.8 | – | 31.6 | did not change their sensitivity | more sensitive | 50.1 | significantly slowed down lactate production
